What was measured:
[1] = system: Parkinson's disease; assay: Case study Patient: Parkinson's disease symptoms during topical testosterone gel to forehead; format: in vivo, human
Description: They were diagnosed with Parkinson's in May 2016, confirmed October 2016 and April 2017 by independent DAT scans. Symptoms were bradykinesia of the legs, rigidity/stiffness, postural instability, specifically trouble with balance and falling as well as trouble with moving and walking, with peripheral neuropathy on both feet. Patient experienced no particular tremors. They also experienced chronic and increasing fatigue and loss of energy, as well as chronic head colds that would last about one week at a time every 6 weeks.
(§1) In February 2019, symptoms continued and progressed. Patient was prescribed carbidopa/levodopa 25 mg/100 mg TID.

[2] = Case study Patient: blood testosterone levels during topical testosterone gel to forehead; format: in vivo, human; conditions: for concentration at 2 months / concentration at 10 months: human, blood, topical, 0.14 mg
Description: as §1
Patient was maintained at these levels.

[3] = system: luteinizing hormone (LH); assay: Serum luteinizing hormone levels by competitive ELISA after topical administration to rat forehead; format: in vivo, male Sprague-Dawley rats; conditions: about 0.2% testosterone gel on forehead twice daily for 14 days; not statistically significant
Description: (§2) Hormone Assessment: Blood was collected, stored at 4° C. overnight and spun down to collect serum. Serum was analyzed for total testosterone levels (T) and luteinizing hormone (LH) levels by competitive ELISA using commercially available kits (Enzo Life Sciences). […] All samples were run in duplicate. For assessing LH, serum was diluted 1:2 and, due to high variance, samples were run in quadruplet. Obvious outlying values were omitted and data were averaged for the final analysis.

[4] = system: corneal mechanical thresholds; assay: Corneal mechanical threshold in rat (surrogate for effect on dry eye); format: in vivo; conditions: p<0.01 (FIG. 5)
Description: In the same animal model as used in Example 1, the corneal mechanical thresholds were determined as a surrogate for effect on dry eye.

[5] = Serum total testosterone levels by competitive ELISA after twice daily topical administration to rat forehead; format: in vivo, male Sprague-Dawley rats; conditions: about 0.2% testosterone gel on shaved forehead twice daily for 14 days; serum 30 min after final application; one-way t-test p 0.08 (FIG. 1)
Description: as §2

With C[C@]12CC[C@H]3[C@@H](CCC4=CC(=O)CC[C@@]43C)[C@@H]1CC[C@@H]2O [testosterone, 17β-hydroxyandrost-4-en-3-one] the “increase of repetitions in exercises” value ([1]; 20-month period on gel, reported by physical trainer) was “about 25%”, the cognitive decline ([1]; April 2020) was “no cognitive decline” and the “sex drive compared to before start of testosterone treatment” value ([1]; April 2020) was “increased sex drive”. For the same compound, the “strength in knees and rest of body” value ([1]; April 2020) was “increased strength”, the “energy / ability to exercise” value ([1]; after starting the testosterone gel 0.14 mg once daily to forehead) was “more energetic and was able to exercise” and the “progression of Parkinson's disease” value ([1]; neurologist's conclusion June 2020, comparison with peer group) was “had not progressed”. It also gave a bioavailable testosterone ([2]; 0.2% w/w gel once daily to forehead, 10 months) of 2.0 ng/dL, a concentration at 2 months ([2]; Free testosterone, 0.2% w/w gel once daily to forehead) of 0.08 pg/mL and a concentration at 10 months ([2]; Free testosterone, 0.2% w/w gel once daily to forehead, 10 months) of 1 pg/mL. For the same compound, the concentration at 2 months ([2]; Total testosterone, 0.14 mg in 0.07 g gel (0.2% w/w) once daily to forehead) was 140 pg/mL, the concentration at 10 months ([2]; Total testosterone, 0.2% w/w gel once daily to forehead, 10 months) was 210 pg/mL and the “increase in serum luteinizing hormone levels” value [3] was 9%. The “corneal mechanical threshold pressure compared with control” value ([4]; 60 minutes after administration to shaved head) was “significantly higher”, the “corneal mechanical threshold pressure compared with control” value ([4]; 120 minutes after administration to shaved head) was “significantly higher” and the “increase in testosterone levels in the treated rats compared to controls” value [5] was 42%.
